Assay results as given in PMC3425385 (2011).

Biological target: T1, KIAA1363 (AADACL1, NCEH1) (Homo sapiens, UniProt Q6PIU2)
T1 sequence (Q6PIU2 1-408): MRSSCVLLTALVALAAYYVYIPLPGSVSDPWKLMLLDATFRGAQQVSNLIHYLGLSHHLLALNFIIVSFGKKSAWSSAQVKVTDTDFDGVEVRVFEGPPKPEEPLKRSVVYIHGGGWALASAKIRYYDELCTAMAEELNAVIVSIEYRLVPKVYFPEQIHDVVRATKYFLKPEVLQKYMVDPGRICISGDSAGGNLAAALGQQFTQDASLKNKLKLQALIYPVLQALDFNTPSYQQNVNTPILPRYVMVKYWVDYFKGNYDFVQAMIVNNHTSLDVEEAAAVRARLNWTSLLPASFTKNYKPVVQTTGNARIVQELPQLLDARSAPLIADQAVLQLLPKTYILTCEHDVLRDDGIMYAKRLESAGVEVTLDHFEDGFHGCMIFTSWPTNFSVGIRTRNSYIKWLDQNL
Assay: competitive gel-based ABPP with FP-Rh in PC3 cells in situ
Type: cell-based

JW576
IC50: 340 ± 150 nM
